Test results published in patent publication US9072297B2, “Herbicidal composition” (ISHIHARA SANGYO KAISHA, LTD., priority 2010, dated 2015).

Tests used:
Format in all cases: in vivo
[1] = test system: crabgrass (Digitaria ciliaris (Retz.) Koel); test: Test Example 7: foliar application pot test, crabgrass 4.5 leaf stage; conditions: read-out: Growth inhibition rate (%) of crabgrass Measured value; for inhibition at 300 g/ha: foliar
Experimental: (§1) Growth inhibition rate (%)= • 0:equivalent to the non-treated area to 100:complete kill
(§2) Upland field soil was put into a 1/1,000,000 ha pot, and seeds of crabgrass (Digitaria ciliaris (Retz.) Koel) were sown. When crabgrass reached 4.5 leaf stage, a predetermined amount of each herbicidal composition was diluted with water (corresponding to 200 L/ha) containing 0.25 vol % of an agricultural adjuvant (tradename: Agral, manufactured by Syngenta) and applied by foliar application with a small sprayer.
(§3) On the 28th day after application, the state of growth of the plant was visually observed.

[2] = test system: guineagrass (Panicum maximum Jacq.); test: Test Example 1: foliar application pot test, guineagrass; conditions: Megathyrsus maximus, read-out: Growth inhibition rate (%) of guineagrass Measured value
Experimental: (§4) Upland field soil was put into a 1/1,000,000 ha pot, and seeds of various plants were sown. When the plants reached certain leaf stages (guineagrass (Panicum maximum Jacq.): 4.5 to 5.0 leaf stage, crabgrass (Digitaria ciliaris (Retz.) Koel): 3.0 to 4.2 leaf stage), a predetermined amount of each herbicidal composition was diluted with water (corresponding to 200 L/ha) containing 0.25 vol % of an agricultural adjuvant (tradename: Agral, manufactured by Syngenta) and applied by foliar application with a small sprayer.
(§5) On the 28th day after application, the state of growth of the plants were visually observed and evaluated in accordance with the following evaluation standard. The growth inhibition rate (%) (measured value) and the growth inhibition rate (%) (calculated value) calculated by the Colby's formula are shown in Tables 1 and 2.
as §1

[3] = test system: surinam grass (Brachiaria decumbens Stapf.); test: Test Example 3: soil application pot test, surinam grass; conditions: Urochloa decumbens, read-out: Growth inhibition rate (%) of surinam grass Measured value
Experimental: as §1
(§6) Upland field soil was put into a 1/1,000,000 ha pot, and seeds of surinam grass (Brachiaria decumbens Stapf.) were sown. On the day after application, a predetermined amount of each herbicidal composition was diluted with water corresponding to 200 L/ha and applied by soil application with a small sprayer.
(§7) On the 42nd day after application, the state of growth of the plant was visually observed.

[4] = test system: crabgrass (Digitaria ciliaris (Retz.) Koel); test: Test Example 1: foliar application pot test, crabgrass; conditions: read-out: Growth inhibition rate (%) of crabgrass Measured value
Experimental: as §4, §5, §1

[5] = test system: crabgrass (Digitaria ciliaris (Retz.) Koel); test: Test Example 5: foliar application pot test, crabgrass (MonFast adjuvant); conditions: read-out: Growth inhibition rate (%) of crabgrass Measured value
Experimental: as §1
as §2, with “3.0 to 4.2” for “4.5”, “0.2” for “0.25”, “MonFast,” for “Agral,”, “Monsanto)” for “Syngenta)”
as §3

[6] = test system: field bindweed (Convolvulus arvensis L.); test: Test Example 4: soil application pot test, field bindweed; conditions: read-out: Growth inhibition rate (%) of field bindweed Measured value
Experimental: as §1
as §6, with “field bindweed (Convolvulus arvensis L.)” for “surinam grass (Brachiaria decumbens Stapf.)”
as §7

[7] = test system: surinam grass (Brachiaria decumbens Stapf.); test: Test Example 2: foliar application pot test, surinam grass; conditions: Urochloa decumbens, read-out: Growth inhibition rate (%) of surinam grass Measured value
Experimental: as §1
as §2, with “surinam grass (Brachiaria decumbens Stapf.)” for “crabgrass (Digitaria ciliaris (Retz.) Koel)”, “the surinam grass” for “crabgrass”, “2.8 to 3.2” for “4.5”
as §3

[8] = test system: crabgrass (Digitaria ciliaris (Retz.) Koel); test: Test Example 6: foliar application pot test, crabgrass 3.8 to 4.0 leaf stage; conditions: read-out: Growth inhibition rate (%) of crabgrass Measured value
Experimental: as §1
as §2, with “3.8 to 4.0” for “4.5”
as §3

## CNC(=O)N(C)c1nnc(C(C)(C)C)s1 [Tebuthiuron, 1-(5-tertiarybutyl-1,3,4-thiadiazol-2-yl)-1,3-dimethylurea]
[1]
  inhibition at 300 g/ha: 17%
[2]; foliar
  inhibition at 500 g/ha: 15%
[3]; soil
  inhibition at 500 g/ha: 28%
[4]; foliar
  inhibition at 500 g/ha: 0%

## COc1cc(OC)nc(NC(=O)NS(=O)(=O)c2ncccc2C(F)(F)F)n1 [Flazasulfuron, 1-(4,6-dimethoxypyrimidin-2-yl)-3-(3-trifluoromethyl-2-pyridylsulfonyl)urea]
[1]; dose 100 g/ha, foliar application, 4.5 leaf stage, Agral, 28th day after application
  inhibition at 100 g/ha: 73%
[5]; dose 30 g/ha, foliar application, 3.0 to 4.2 leaf stage, MonFast, 28th day after application
  inhibition at 30 g/ha: 50%
[5]; dose 40 g/ha, foliar application, 3.0 to 4.2 leaf stage, MonFast, 28th day after application
  inhibition at 40 g/ha: 58%
[6]; dose 37.5 g/ha, soil application, 42nd day after application
  inhibition at 37.5 g/ha: 25%
[2]; dose 20 g/ha, foliar application, 4.5 to 5.0 leaf stage, 28th day after application
  inhibition at 20 g/ha: 90%
[2]; dose 37.5 g/ha, foliar application, 4.5 to 5.0 leaf stage, 28th day after application
  inhibition at 37.5 g/ha: 92%
[3]; dose 25 g/ha, soil application, 42nd day after application
  inhibition at 25 g/ha: 70%
[7]; dose 37.5 g/ha, foliar application, 2.8 to 3.2 leaf stage, 28th day after application
  inhibition at 37.5 g/ha: 45%
[4]; dose 25 g/ha, foliar application, 3.0 to 4.2 leaf stage, Agral, 28th day after application
  inhibition at 25 g/ha: 40%
[8]; dose 15 g/ha, foliar application, 3.8 to 4.0 leaf stage, Agral, 28th day after application
  inhibition at 15 g/ha: 40%

## CN(C)C(=O)Nc1ccc(Cl)c(Cl)c1 [Diuron, 3-(3,4-dichlorophenyl)-1,1-dimethylurea]
[6]; soil
  inhibition at 1250 g/ha: 0%
[7]; foliar
  inhibition at 1250 g/ha: 0%
[8]; foliar
  inhibition at 3000 g/ha: 80%

## CON(C)C(=O)Nc1ccc(Br)cc1 [Metobromuron, 3-(4-bromophenyl)-1-methoxy-1-methylurea]
[1]
  inhibition at 300 g/ha: 5%
[5]; foliar
  inhibition at 500 g/ha: 0%
  inhibition at 1000 g/ha: 0%
